No end group written: not given here.
What was measured:
[1] = target: T1, peptide/HLA-A*0201 complexes (Homo sapiens, UniProt P04439, D140Y/D185E/D98H/E176V/E277Q/G131W/G231S/I119V/I121R/I166T/I218V/L300P/L318F/N151K/N90K/P208A/P217A/Q86G/Q94H/R138H/R169H/T345S); assay: T2 stabilization (stability) assay; type: binding; details: T2 cells, peptide 50 μg/ml, 18 h, then brefeldin A 10 μg/ml 1 h; read at 0, 2, 4, 6 h, 37°C; flow cytometry
T1 construct: endogenous in cells; host or cells: T2 lymphoblastic cell line (TAP-deficient)
Method: For the stability assay, each of the selected peptides (50 μg/ml) was incubated with T2 cells (1 × 10^6 cells/ml) for 18 h in serum-free RPMI 1640 medium supplemented with 3 μg/ml β2-M at 37°C. Thereafter, cells were washed twice and incubated with brefeldin A (10 μg/ml, eBiosciences, USA) for 1 h. Subsequently, the cells were washed and incubated for 0, 2, 4, and 6 h at 37°C. Cells were washed twice, stained with BB7.2 for 0.5 h at 4°C. Finally, cells were collected, washed, and analyzed by flow cytometry. Dissociation complex 50 (DC50) was defined as time (t) required for the loss of 50% of the HLA-A^∗0201/peptide complexes stabilized at 0 h.

[2] = target: HLA-A*0201 molecules (Homo sapiens, UniProt P04439, D140Y/D185E/D98H/E176V/E277Q/G131W/G231S/I119V/I121R/I166T/I218V/L300P/L318F/N151K/N90K/P208A/P217A/Q86G/Q94H/R138H/R169H/T345S); assay: T2 binding assay; details: T2 cells 1 × 10^6 cells/ml, peptide 50 μg/ml, 3 μg/ml β2-M, serum-free RPMI 1640, 18 h, 37°C; BB7.2 staining, flow cytometry; FI > 1.5 = high affinity
Method: The binding affinity of these peptides to HLA-A^∗0201 was evaluated according to our previous study. Briefly, T2 cells (1 × 10^6 cells/ml) were incubated with each peptide (50 μg/ml) and 3 μg/ml human β2-microglobulin (β2-M, Merck, Germany) in serum-free RPMI 1640 medium for 18 h at 37°C in a humidified atmosphere of 5% CO2. Then cells were washed twice and incubated with the anti-human HLA-A2 PE-Cyanine7 mAb, BB7.2 (eBioscience, USA) for 0.5 h at 4°C. Finally, cells were collected, washed, and analyzed using flow cytometry (FACSCalibur, Becton Dickinson, USA). The fluorescence index (FI) calculation was performed as follows: FI = [(mean fluorescence intensity (MFI) of the given peptide − background) − (MFI of the PBS control group − background)]/[(MFI of the PBS control group − background)]. The MFI value of cells untreated with peptides and antibodies was employed as background. Peptides with an FI factor of more than 1.5 were classed as high-affinity candidates.

[3] = system: PBMCs from HLA-A*02+ healthy donors; assay: IFN-γ ELISPOT of CTLs induced in vitro; type: cell-based, human; details: PBMCs of six donors stimulated with peptide 10 μg/ml three times, day 21; stimulators peptide-pulsed T2 cells (50 μg/ml); 1 × 10^5 effectors; mean, n = 6
Method: (§1) CTL induction in vitro was conducted according to the procedures previously described. Briefly, PBMCs from eight HLA-A^∗02^+ healthy donors were isolated using Ficoll-Paque density gradient centrifugation and resuspended in RPMI 1640 medium supplemented with 10% FBS. Then, PBMCs were stimulated three times (once a week) with the indicated peptides (10 μg/ml) or protein MTA1(1–283) (at final concentrations of 0, 1, 10, 30, and 50 μg/ml) for 21 days. Human recombinant cytokine interleukin-2 (IL-2) (50 U/ml) was added on day 3 and 1 day after each stimulation. The cytotoxic assay (lactate dehydrogenase (LDH) assay) and IFN-γ secretion enzyme-linked immunospot (ELISPOT) assay were performed on day 21.
The ELISPOT assay was performed using a commercial kit (Dakewe, China) according to the procedures previously described. Briefly, T2 cells incubated with/without candidate peptide (50 μg/ml) were used as the stimulating cells, effector cells (1 × 10^5) and stimulator cells (peptide-pulsed T2 cells or T2 cells only, 1 × 10^5) were seeded into the 96-well plate precoated with an anti-human (or anti-mouse) IFN-γ antibody. After incubation at 37°C for 18 h, cells were removed, and plates were processed for analysis as instructed. The spot number was determined automatically using a computer-assisted spot analyzer (Dakewe, China).

[4] = system: SW620 incubated with an anti-human HLA-A2 antibody; assay: LDH cytotoxicity assay, CTLs induced in vitro, HLA-A2 blocked; type: cell-based; details: peptide-induced CTLs, BB7.2 added 30 min before effectors
Method: as §1
(§2) Cytotoxic activity of induced T cells was tested based on the quantitation of LDH release using the nonradioactive cytotoxicity assay kit (Promega, USA) at the gradient E/T ratio [29, 31]. Target cells which expressed different levels of MTA1 or peptide-pulsed T2 cells were used as target cells. The anti-human HLA-A2 antibody (BB7.2) was added 30 min before adding effector cells to determine the HLA restriction. Target cells (5 × 10^3/well) were cocultured with the effector cells at 37°C for 4 h. The percentage of specific lysis of the target cells was determined using the equation: percentage of specific lysis = [(experimental release − effector spontaneous release − target spontaneous release)/(target maximum release − target spontaneous release)] × 100.

[5] = system: SW620 (HLA-A2+, MTA1+); assay: LDH cytotoxicity assay, CTLs induced in vitro; type: cell-based, human; details: CTLs induced by peptide 10 μg/ml from donor no. 6; E/T 50 : 1; LDH release, 4 h; n = 3
Method: as §1, §2

[6] = system: MDA-MB-231 (HLA-A2+, MTA1+); assay: LDH cytotoxicity assay, CTLs induced in vitro; type: cell-based, human; details: CTLs induced by peptide 10 μg/ml from donor no. 6; E/T 50 : 1; LDH release, 4 h; n = 3
Method: as §1, §2

[7] = system: MCF-7 (HLA-A2+, MTA1+); assay: LDH cytotoxicity assay, CTLs induced in vitro; type: cell-based, human; details: peptide-induced CTLs from healthy donors, E/T 50 : 1
Method: as §1, §2

[8] = system: Het-1A (HLA-A2+, MTA1low); assay: LDH cytotoxicity assay, CTLs induced in vitro; type: cell-based, human; details: peptide-induced CD8+ T cells, E/T 50 : 1
Method: as §1, §2

[9] = system: HT-29 (HLA-A2−, MTA1+); assay: LDH cytotoxicity assay, CTLs induced in vitro; type: cell-based, human; details: peptide-induced CTLs, HLA-A2-negative control target
Method: as §1, §2

[10] = target: HLA-A*0201 molecule on T2 cells (human (endogenous in T2) | human); assay: flow cytometry on cells; stability assay: T2 cells loaded with peptide (50 μg/ml) and 3 μg/ml β2-M for 18 h at 37°C, brefeldin A (10 μg/ml) 1 h, then 0, 2, 4 and 6 h at 37°C; stained with BB7.2; DC50 = time for the loss of 50% of the HLA-A*0201/peptide complexes stabilized at 0 h
[11] = target: HLA-A*0201 molecule on T2 cells (human (endogenous in T2) | human); assay: flow cytometry on cells; T2 binding assay: T2 cells (1 x 10^6 cells/ml) with peptide (50 μg/ml) and 3 μg/ml human β2-M in serum-free RPMI 1640, 18 h, 37°C; surface HLA-A2 stained with BB7.2 PE-Cyanine7; fluorescence index (FI); FI > 1.5 classed as high affinity

Molecule	FI (fluorescence index) [2]	DC50 [10] [h]	FI (fluorescence index) [11]	also measured
ILIGETIKI [COX-2_321-329, reference compound]	1.905			DC50: time required for the loss of 50% of the HLA-A*0201/peptide complexes stabilized at 0 h [1]: >6 h
FLSRQLESL [Peptide P109]	2.61			IFN-γ ELISPOT mean spot intensities [3]: 453; lysis of SW620 cells incubated with an HLA-A2 blocking antibody [4]: did not lyse; DC50: time required for the loss of 50% of the HLA-A*0201/peptide complexes stabilized at 0 h [1]: >6 h; lysis rate of SW620 cells [5]: 65.5%; lysis rate of MDA-MB-231 cells [6]: 32.2%; rate of MCF-7 cell lysis [7]: 23.8%; rate of Het-1A cell lysis [8]: 11.9%; lysis of HT-29 cells [9]: did not lyse
HBcAg 18-27 peptide		> 6		
YQADITDLL [Peptide P173]	0.22			
FLSRQLESL [MTA1 peptide P109]		> 6	2.61	
TLLNETESL [MTA1 peptide P129]		> 6	1.28	
YQADITDLL [MTA1 peptide P173]			0.22	

The next lines start with results.

FI (fluorescence index) [2]	DC50 [10] [h]	FI (fluorescence index) [11]	Molecule	also measured
1.56			ALADKHATL [Peptide P57]	IFN-γ ELISPOT mean spot intensities [3]: 543; lysis of SW620 cells incubated with an HLA-A2 blocking antibody [4]: did not lyse; DC50: time required for the loss of 50% of the HLA-A*0201/peptide complexes stabilized at 0 h [1]: >6 h; lysis rate of SW620 cells [5]: 45.8%; lysis rate of MDA-MB-231 cells [6]: 30.5%; rate of MCF-7 cell lysis [7]: 17.6%; lysis of HT-29 cells [9]: did not lyse
	> 2	2.08	YLIRRIEEL [MTA1 peptide P22]	
	> 6	1.91	ILIGETIKI (not fully specified) [cyclooxygenase-2 (COX-2) 321-329 peptide]	
	> 6	1.56	ALADKHATL [MTA1 peptide P57]	

Source: paper PMC6286779, “HLA-A2-Restricted Epitopes Identified from MTA1 Could Elicit Antigen-Specific Cytotoxic T Lymphocyte Response” (Journal of Immunology Research, 2018)
